PMC6677754, “In silico design and optimization of selective membranolytic anticancer peptides” (Scientific Reports, 2019)
Peptide text beside a SMILES is read from it.

Columns and labels:
[1] = tested on: MCF7 breast adenocarcinoma cell line; assay: Cell viability assay (MTT); format: cell-based, human; conditions: Table S2, 24 h, mean ± sd, N = 2 independent measurements with six technical replicates each (Figs S6-S8)
Outline: (§1)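 Viability by MTT: 10^4 cells/well exposed 24 h to 2-fold peptide dilutions from 100 μM in DMEM, then 1 h with 0.5 mg mL−1 MTT; absorbance at 540 nm relative to peptide-free medium as 100% survival. EC50 from a 3-parameter log-logistic fit.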

[2] = tested on: A549 lung adenocarcinoma cell line; assay: Cell viability assay (MTT); format: cell-based, human; conditions: Table S2; MTT, 24 h; mean ± sd; N = 2 independent measurements with six technical replicates each (Figs S6-S8); read-out: A549 EC50 /µM
Outline: as §1

[3] = tested on: human erythrocytes; assay: Hemolysis assay; format: cell-based; conditions: red cells of human, 1 h
Method: Human erythrocytes were freshly ordered at the Blutspende Zürich. Erythrocytes were washed 3 times with a […] phosphate buffered saline (PBS, Gibco, Thermo Fisher Scientific, Waltham, MA, USA) solution centrifuging at 800 g for 10 min or until the supernatant appeared clear to remove the blood plasma. A 5% v/v erythrocytes : PBS solution was prepared for direct use. For HC50 determination, peptides were dissolved in PBS at an intermediate concentration of 1 mM. A dilution series of the peptide from 200 to 6.25 μM was plated in a round-bottomed 96-well plate in triplicates, with a volume of 50 μL per well. PBS buffer and a solution of 0.1% Triton-X-100 (Fisher Chemical, Loughborough, UK) in PBS were employed as negative and positive controls, respectively. 50 μL of the 5% erythrocyte solution were added in each well and the plates were incubated at 37°C for 1 h. After this time, 100 μL PBS were added to each well and plates were centrifuged at 800 g for 10 min. 100 μL of the supernatant were transferred to a flat-bottomed 96-well plate and the absorbance was measured at 540 nm in a Tecan Infinity M1000 spectrophotometer plate reader. The hemolysis percentage was calculated, considering the absorbance values of the Triton and PBS wells as 100% and 0% hemolysis, respectively.
The resultant sigmoidal curves were analyzed with the drc22 R package using a log-logistic model with 3 fixed parameters to obtain the HC50 values. […]
NCI-60 screening procedure […]
Each peptide was tested in a 5-concentration assay, starting at 10^-4 M and diluting 10-fold to the lowest 10^-8 M concentration. The peptides were incubated for 48 h and the cell concentration was assayed by using the sulforhodamine B assay25 and optical density measurements. The growth inhibition (GI50) value24, measures the growth inhibitory power of the drug agent. The GI50 value is the concentration of the test drug for which the condition in Eq. S1 is met, where T is the optical density of the test well after a 48-h exposure to the peptide, T0 the optical density before applying the peptide drug and C the control optical density of a well where no peptide was applied.

[4] = tested on: noncancer HDMEC primary cells (human dermal microvascular endothelial cells); assay: Cell viability assay (MTT); format: cell-based; conditions: Table S2; noncancer primary cells; MTT, 24 h; mean ± sd; N = 2 independent measurements with six technical replicates each (Figs S6-S8)
Method: 10% fetal bovine serum and 1% penicillin-streptomycin (Thermo Fisher Scientific, Waltham, MA, USA). The cultures were kept at 37°C in a 5% CO2 atmosphere incubator (Thermo Fisher Scientific, Waltham, MA, USA) and split every two to three days to new culture flasks. Cells no older than 20 passages were used for experiments.
For splitting, the cell culture media was aspirated, the cells were washed with 0.01 M phosphate buffered saline (PBS, Gibco, Thermo Fisher Scientific, Waltham, MA, USA) and trypsin-EDTA (trypsin - ethylene diamine tetraacetic acid, Fisher scientific, UK) was added to the cell layer to detach them from the flask surface. After incubation for 2 min at 37°C, cells were resuspended with an equal volume of DMEM media and centrifuged at 310 g for 5 min at 4°C. After removal of the supernatant the cells were resuspended in DMEM cell media and split into new cell culture flasks at a 1/3 to 1/5 ratio.
Determination of the anticancer peptides half effective concentration (EC50) was performed by a 3-(4,5-dimethylthiazol-2-yl)-2,5-diphenyltetrazolium bromide (MTT) assay, as described elsewhere21. Briefly, […] were seeded in each well of a 96-well plate and left to adhere and […]
sulfoxide (DMSO, Fisher Scientific, UK) at an intermediate concentration of 1 mM. The peptides were then diluted in a 2-fold dilution series starting at 100 μM with DMEM culture media. Cells were incubated with the peptide solutions for 24 h. After this time, the cell media was removed and the cells were incubated for 1 h with a 0.5 mg mL−1 MTT solution to allow enough time for formazan crystal formation (Sigma Aldrich, Steinheim, Germany). The supernatant was removed and 100 μL of DMSO were added into each well to resuspend the formazan crystals.
After manually shaking the plates to completely dissolve the crystals, the absorbance was measured at 540 nm in a Tecan Infinity M1000 spectrophotometer. The cell viability was determined based on the quantification of the color intensity in each culture well, considering the absorbance obtained by the control media without peptides as a 100% survival. The resultant sigmoidal curves were analyzed with the drc22 R package using a log-logistic model

SMILES | EC50 [1] [µM] | EC50 [2] [µM] | Eryhtr. HC50 /µM [3] [µM] | EC50 [4] [µM]
CC[C@H](C)[C@H](NC(=O)[C@@H](NC(=O)[C@H](Cc1c[nH]cn1)NC(=O)[C@H](Cc1ccccc1)NC(=O)[C@H](C)NC(=O)[C@H](CCCCN)NC(=O)[C@H](CCCNC(=N)N)NC(=O)[C@H](Cc1ccc(O)cc1)NC(=O)[C@H](Cc1c[nH]c2ccccc12)NC(=O)[C@@H](NC(=O)[C@H](CCCNC(=N)N)NC(=O)[C@@H](NC(=O)[C@H](CCCCN)NC(=O)[C@H](CCCCN)NC(=O)[C@H](CC(C)C)NC(=O)[C@@H](NC(=O)[C@@H](N)CCC(N)=O)C(C)C)C(C)C)[C@@H](C)O)C(C)C)C(=O)NCC(=O)N[C@@H](CCCCN)C(=O)N[C@H](C(N)=O)C(C)C [Off2.2.4] (H-QVLKKVRTWYRKAFHVIGKV-NH2) | 68 ± 5 | > 100 | > 200 | > 100
CC(C)C[C@H](NC(=O)[C@H](CCCNC(=N)N)NC(=O)CNC(=O)[C@H](CC(C)C)NC(=O)[C@@H](NC(=O)[C@H](CCCCN)NC(=O)[C@H](Cc1c[nH]c2ccccc12)NC(=O)[C@H](Cc1ccc(O)cc1)NC(=O)[C@H](CCCNC(=N)N)NC(=O)[C@H](CCCCN)NC(=O)[C@H](Cc1ccc(O)cc1)NC(=O)[C@@H](NC(=O)[C@@H](NC(=O)[C@H](CCCCN)NC(=O)[C@H](Cc1ccccc1)NC(=O)[C@H](Cc1c[nH]cn1)NC(=O)[C@H](CCCCN)NC(=O)[C@H](CC(C)C)NC(=O)[C@H](Cc1ccccc1)NC(=O)[C@@H](N)CCCNC(=N)N)[C@@H](C)O)C(C)C)C(C)C)C(N)=O [Off8] (H-RFLKHFKTVYKRYWKVLGRL-NH2) | 11.9 ± 0.1 | 17 ± 4 | 144 ± 4 | 14.3 ± 0.2
CC(C)C[C@H](NC(=O)[C@H](CCCCN)NC(=O)CNC(=O)[C@H](Cc1ccccc1)NC(=O)[C@H](CC(C)C)NC(=O)[C@H](CCC(=O)O)NC(=O)[C@H](Cc1c[nH]c2ccccc12)NC(=O)[C@@H]1CCCN1C(=O)[C@H](CCCNC(=N)N)NC(=O)[C@H](CCCNC(=N)N)NC(=O)[C@H](Cc1ccc(O)cc1)NC(=O)[C@H](Cc1ccccc1)NC(=O)[C@@H]1CCCN1C(=O)[C@H](CCCNC(=N)N)NC(=O)[C@H](Cc1ccccc1)NC(=O)[C@H](CCCCN)NC(=O)[C@H](CCCCN)NC(=O)[C@H](Cc1ccccc1)NC(=O)[C@@H](NC(=O)[C@@H](N)CCC(N)=O)C(C)C)C(N)=O [Off2.1] (H-QVFKKFRPFYRRPWELFGKL-NH2) | 91 ± 2 | > 100 | > 200 | 173 ± 1
CC[C@H](C)[C@H](NC(=O)[C@H](CC(C)C)NC(=O)[C@@H](N)CCCNC(=N)N)C(=O)N[C@@H](CCCCN)C(=O)N[C@@H](CCCNC(=N)N)C(=O)N[C@H](C(=O)N[C@@H](CCCCN)C(=O)N[C@H](C(=O)N[C@@H](Cc1c[nH]c2ccccc12)C(=O)N[C@@H](Cc1ccc(O)cc1)C(=O)N[C@@H](CCCNC(=N)N)C(=O)N[C@@H](CCCCN)C(=O)N[C@@H](C)C(=O)N[C@@H](Cc1c[nH]c2ccccc12)C(=O)N[C@@H](CCCCN)C(=O)N[C@H](C(=O)N[C@H](C(=O)NCC(=O)N[C@@H](CCCCN)C(=O)N[C@@H](Cc1ccccc1)C(N)=O)C(C)C)C(C)C)[C@@H](C)O)[C@@H](C)CC [Off2.7] (H-RLIKRIKTWYRKAWKVVGKF-NH2) | 11.2 ± 0.7 | 15 ± 1 | > 200 | 23 ± 5
CC[C@H](C)[C@H](NC(=O)[C@H](CCCCN)NC(=O)[C@H](CCCCN)NC(=O)[C@H](CC(C)C)NC(=O)[C@H](CC(C)C)NC(=O)[C@@H](N)CCC(N)=O)C(=O)N[C@@H](CCCNC(=N)N)C(=O)N[C@H](C(=O)N[C@@H](Cc1c[nH]c2ccccc12)C(=O)N[C@@H](Cc1ccc(O)cc1)C(=O)N[C@@H](CCCNC(=N)N)C(=O)N[C@@H](CCCCN)C(=O)N[C@@H](C)C(=O)N[C@@H](Cc1c[nH]c2ccccc12)C(=O)N[C@@H](Cc1c[nH]cn1)C(=O)N[C@H](C(=O)N[C@@H](Cc1ccc(O)cc1)C(=O)NCC(=O)N[C@@H](CCCCN)C(=O)N[C@H](C(N)=O)C(C)C)C(C)C)[C@@H](C)O [Off2.2.9] (H-QLLKKIRTWYRKAWHVYGKV-NH2) | 13 ± 1 | 28 ± 3 | > 200 | 21 ± 2
CC[C@H](C)[C@H](NC(=O)[C@H](CC(C)C)NC(=O)[C@@H](N)CCCCN)C(=O)N[C@@H](Cc1c[nH]cn1)C(=O)N[C@@H](CCCNC(=N)N)C(=O)N[C@@H](CC(C)C)C(=O)N[C@@H](CCCCN)C(=O)N[C@H](C(=O)N[C@H](C(=O)N[C@@H](Cc1ccccc1)C(=O)N[C@@H](CCCCN)C(=O)N[C@@H](CCCCN)C(=O)N[C@H](C(=O)N[C@@H](Cc1c[nH]c2ccccc12)C(=O)N[C@@H](Cc1c[nH]cn1)C(=O)N[C@@H](Cc1ccccc1)C(=O)N[C@@H](CC(C)C)C(=O)NCC(=O)N[C@@H](Cc1c[nH]cn1)C(=O)N[C@@H](CC(C)C)C(N)=O)C(C)C)C(C)C)[C@@H](C)O [Off9] (H-KLIHRLKTVFKKVWHFLGHL-NH2) | 18.9 ± 0.2 | 22 ± 4 | 41 ± 3 | 22 ± 3
CC[C@H](C)[C@H](NC(=O)[C@@H](N)CCC(N)=O)C(=O)N[C@@H](Cc1ccc(O)cc1)C(=O)N[C@@H](CCCCN)C(=O)N[C@@H](CCCCN)C(=O)N[C@@H](Cc1ccc(O)cc1)C(=O)N[C@@H](CCCNC(=N)N)C(=O)N[C@H](C(=O)N[C@@H](Cc1c[nH]c2ccccc12)C(=O)N[C@@H](Cc1ccc(O)cc1)C(=O)N[C@@H](CCCNC(=N)N)C(=O)N[C@@H](CCCCN)C(=O)N[C@@H](C)C(=O)N[C@@H](Cc1c[nH]c2ccccc12)C(=O)N[C@@H](CCCCN)C(=O)N[C@H](C(=O)N[C@@H](CC(C)C)C(=O)NCC(=O)N[C@@H](CCCCN)C(=O)N[C@H](C(N)=O)C(C)C)C(C)C)[C@@H](C)O [Off2.2.10] (H-QIYKKYRTWYRKAWKVLGKV-NH2) | 16.9 ± 0.8 | 36 ± 7 | > 200 | 71 ± 12
CC[C@H](C)[C@H](NC(=O)[C@H](CCC(N)=O)NC(=O)[C@H](Cc1ccccc1)NC(=O)[C@H](C)NC(=O)[C@H](CCCCN)NC(=O)[C@H](CCCCN)NC(=O)[C@H](Cc1ccc(O)cc1)NC(=O)[C@H](Cc1c[nH]c2ccccc12)NC(=O)[C@@H](NC(=O)[C@H](CCCCN)NC(=O)[C@@H](NC(=O)[C@H](CCCCN)NC(=O)[C@H](CCCCN)NC(=O)[C@H](Cc1ccccc1)NC(=O)[C@@H](NC(=O)[C@@H](N)CCC(N)=O)[C@@H](C)CC)C(C)C)[C@@H](C)O)C(=O)N[C@@H](CC(C)C)C(=O)NCC(=O)N[C@@H](CCCNC(=N)N)C(=O)N[C@@H](CC(C)C)C(N)=O [Off2.6] (H-QIFKKVKTWYKKAFQILGRL-NH2) | 9.3 ± 0.2 | 12.4 ± 0.1 | > 100 | 21 ± 2
